Measurements from ChEMBL document CHEMBL1201862, “PubChem BioAssay data set” (2004).
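Step 1: Grow cells in 96-well plates. Step 2: Expose to compound for 48 hours at 5 concentrations. Step 3: Interpolate endpoints linearly; if unreached, use highest concentration. GI50 marks 50% less growth.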 The source made the active and inactive calls. Cut-off read from the data, not from the text of the source: active = GI50 up to about 1.1 µM and inactive = higher.

Key:
Test in all cases: growth of human tumour cells (NCI), 48 h
[1] = test system: 786-0
[2] = test system: CCRF-CEM
[3] = test system: COLO 205
[4] = test system: HCT-15
[5] = test system: HL-60
[6] = test system: HOP-62
[7] = test system: HOP-92
[8] = test system: HT-29
[9] = test system: IGROV-1
[10] = test system: LOX IMVI
[11] = test system: M14
[12] = test system: NCI-H522
[13] = test system: OVCAR-4
[14] = test system: SF-539
[15] = test system: SK-MEL-5
[16] = test system: SN12C
[17] = test system: SNB-75
[18] = test system: UACC-62
[19] = test system: UO-31
[20] = test system: UACC-257

| Compound | GI50 [1] | GI50 [2] | GI50 [3] | GI50 [4] [µM] | GI50 [5] | GI50 [6] | GI50 [7] | GI50 [8] | GI50 [9] | GI50 [10] | GI50 [11] | GI50 [12] | GI50 [13] | GI50 [14] | GI50 [15] | GI50 [16] | GI50 [17] | GI50 [18] | GI50 [19] | GI50 [20] |
| --- | --- | --- | --- | --- | --- | --- | --- | --- | --- | --- | --- | --- | --- | --- | --- | --- | --- | --- | --- | --- |
| CN(C)/C=N/CC(O)c1ccccc1 (stereo not drawn) | > 100 µM (inactive) | > 100 µM (inactive) | > 100 µM (inactive) | > 100 | > 100 µM (inactive) | > 100 µM (inactive) | > 100 µM (inactive) | > 100 µM (inactive) | > 100 µM (inactive) | > 100 µM (inactive) | > 100 µM (inactive) | > 100 µM (inactive) | > 100 µM (inactive) | > 100 µM (inactive) | > 100 µM (inactive) | > 100 µM (inactive) | > 100 µM (inactive) | > 100 µM (inactive) | > 100 µM (inactive) |  |
| CC(=O)C1CC(C)=CCC12C(=O)Nc1ccccc12 (stereo not drawn) | > 100 µM (inactive) | > 100 µM (inactive) | > 100 µM (inactive) | > 100 | > 100 µM (inactive) | > 100 µM (inactive) | > 100 µM (inactive) | > 100 µM (inactive) | > 100 µM (inactive) | > 100 µM (inactive) | > 100 µM (inactive) | > 100 µM (inactive) | > 100 µM (inactive) | > 100 µM (inactive) | > 100 µM (inactive) | > 100 µM (inactive) | > 100 µM (inactive) | 68.1 µM (inactive) |  |  |
| O=C(NS(=O)(=O)OCC(Cl)(Cl)Cl)SCCC(F)(F)C(F)(F)C(F)(F)C(F)(F)C(F)(F)C(F)(F)F | 35.6 µM (inactive) | 22.8 µM (inactive) | 17.9 µM (inactive) | 20.9 | 23.1 µM (inactive) | 28.2 µM (inactive) | 10.4 µM (inactive) | 18.8 µM (inactive) | 37.4 µM (inactive) | 22.5 µM (inactive) | 23.1 µM (inactive) | 20 µM (inactive) | 16.4 µM (inactive) | 16.8 µM (inactive) |  | 32.4 µM (inactive) | 23.1 µM (inactive) | 18.8 µM (inactive) | 38 µM (inactive) | 35.5 µM (inactive) |
| CSc1nc2c(c(=O)n1C)N=C(c1ccc(Cl)cc1)CC(c1ccccc1)N2 (stereo not drawn) | 31 µM (inactive) | 26 µM (inactive) | 21.7 µM (inactive) |  | 29 µM (inactive) | 27.6 µM (inactive) | 33.8 µM (inactive) | 15.6 µM (inactive) | 18.3 µM (inactive) | 20.6 µM (inactive) | 17.5 µM (inactive) | 17.6 µM (inactive) | 6.84 µM (inactive) | 17.9 µM (inactive) | 19.5 µM (inactive) | 18.7 µM (inactive) | 13.3 µM (inactive) | 16.1 µM (inactive) | 24.5 µM (inactive) | 22.6 µM (inactive) |
| COc1cc(/C=C2/C(=O)NC(Cc3cc(OC)c(OC)c(C)c3OC)C(=O)N2Cc2ccccc2)c(OC)c(C)c1OC (stereo not drawn) | 79.3 µM (inactive) | 39.7 µM (inactive) | 17.7 µM (inactive) |  | 24.4 µM (inactive) | > 100 µM (inactive) | 17.8 µM (inactive) | 79.8 µM (inactive) | 61.9 µM (inactive) | 70 µM (inactive) | 33 µM (inactive) | 18.2 µM (inactive) | 44.4 µM (inactive) | 75 µM (inactive) | 43.7 µM (inactive) | 54.3 µM (inactive) | 45.6 µM (inactive) | 89.7 µM (inactive) | 26 µM (inactive) | 61.5 µM (inactive) |
| COC(=O)/C=c1\s/c(=C\C(=O)OC)c2ccccc12 | > 100 µM (inactive) | > 100 µM (inactive) | > 100 µM (inactive) | 33.8 | > 100 µM (inactive) |  | > 100 µM (inactive) | > 100 µM (inactive) | > 100 µM (inactive) | > 100 µM (inactive) | > 100 µM (inactive) | > 100 µM (inactive) | > 100 µM (inactive) | > 100 µM (inactive) | > 100 µM (inactive) | > 100 µM (inactive) | 27.9 µM (inactive) | > 100 µM (inactive) | 89.1 µM (inactive) | > 100 µM (inactive) |
